The term IC50 denotes the point on the concentration scale where inhibition reaches its midpoint. For orientation: Ki means the equilibrium dissociation constant of an inhibitor or competing ligand from its target. A lower Ki goes with tighter binding. In general, inhibition refers to the relative decrease from the control value, in per cent.

Activity calls are given as the source filed them. No cut-off for these calls is given here. Some results are limits rather than exact numbers.

The target of assay [1] is T1, Acetylcholinesterase (Homo sapiens, UniProt P22303). Kind of assay: Inhibition of human AChE using acetylthiocholine as substrate by Ellman's method. A general note: DTNB colorimetry detects thiols as they appear.
T1 sequence (P22303 whole entry): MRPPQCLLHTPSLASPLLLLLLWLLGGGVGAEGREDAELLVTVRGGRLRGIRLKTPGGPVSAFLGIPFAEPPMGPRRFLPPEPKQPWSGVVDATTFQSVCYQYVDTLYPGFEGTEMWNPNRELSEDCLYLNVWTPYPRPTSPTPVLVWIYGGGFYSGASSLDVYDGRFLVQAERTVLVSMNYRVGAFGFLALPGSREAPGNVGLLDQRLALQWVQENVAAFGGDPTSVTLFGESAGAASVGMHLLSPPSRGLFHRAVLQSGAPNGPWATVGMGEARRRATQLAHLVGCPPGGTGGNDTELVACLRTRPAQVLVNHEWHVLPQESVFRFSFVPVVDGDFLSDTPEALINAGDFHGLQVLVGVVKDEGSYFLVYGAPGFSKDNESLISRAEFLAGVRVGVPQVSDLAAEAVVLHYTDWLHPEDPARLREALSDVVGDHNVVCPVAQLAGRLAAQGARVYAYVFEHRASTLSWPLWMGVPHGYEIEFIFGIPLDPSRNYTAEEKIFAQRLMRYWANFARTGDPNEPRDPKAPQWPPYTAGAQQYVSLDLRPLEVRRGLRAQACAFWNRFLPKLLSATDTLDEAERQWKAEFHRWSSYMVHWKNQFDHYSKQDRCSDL
The target of assay [2] is T2, Cholinesterase (Homo sapiens, UniProt P06276). Kind of assay: Inhibition of human BuChE using butyrylthiocholine as substrate by Ellman's method.
T2 sequence (P06276 whole entry): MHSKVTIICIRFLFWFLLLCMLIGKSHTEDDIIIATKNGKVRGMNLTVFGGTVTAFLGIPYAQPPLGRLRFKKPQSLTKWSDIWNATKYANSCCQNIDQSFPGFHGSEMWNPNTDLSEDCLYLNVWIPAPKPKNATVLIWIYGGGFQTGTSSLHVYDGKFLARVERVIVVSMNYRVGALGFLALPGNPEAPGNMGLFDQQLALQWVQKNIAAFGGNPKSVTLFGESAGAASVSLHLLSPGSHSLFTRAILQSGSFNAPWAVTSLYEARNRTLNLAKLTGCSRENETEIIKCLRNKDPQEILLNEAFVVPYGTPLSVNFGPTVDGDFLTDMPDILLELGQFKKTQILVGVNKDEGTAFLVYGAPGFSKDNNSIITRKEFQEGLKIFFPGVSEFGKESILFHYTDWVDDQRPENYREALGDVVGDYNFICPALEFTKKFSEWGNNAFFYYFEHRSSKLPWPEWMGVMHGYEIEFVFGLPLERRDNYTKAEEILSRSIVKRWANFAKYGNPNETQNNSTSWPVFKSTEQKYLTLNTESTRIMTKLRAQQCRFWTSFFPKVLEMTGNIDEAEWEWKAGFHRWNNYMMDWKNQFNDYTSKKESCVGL
Assay [3] deals with Cholinesterase (Equus caballus, UniProt P81908). Briefly: Inhibition of horse serum BuChE using butyrylthiocholine as substrate by Ellman's method.
Sequence of Cholinesterase (Equus caballus, UniProt P81908) (P81908 whole entry): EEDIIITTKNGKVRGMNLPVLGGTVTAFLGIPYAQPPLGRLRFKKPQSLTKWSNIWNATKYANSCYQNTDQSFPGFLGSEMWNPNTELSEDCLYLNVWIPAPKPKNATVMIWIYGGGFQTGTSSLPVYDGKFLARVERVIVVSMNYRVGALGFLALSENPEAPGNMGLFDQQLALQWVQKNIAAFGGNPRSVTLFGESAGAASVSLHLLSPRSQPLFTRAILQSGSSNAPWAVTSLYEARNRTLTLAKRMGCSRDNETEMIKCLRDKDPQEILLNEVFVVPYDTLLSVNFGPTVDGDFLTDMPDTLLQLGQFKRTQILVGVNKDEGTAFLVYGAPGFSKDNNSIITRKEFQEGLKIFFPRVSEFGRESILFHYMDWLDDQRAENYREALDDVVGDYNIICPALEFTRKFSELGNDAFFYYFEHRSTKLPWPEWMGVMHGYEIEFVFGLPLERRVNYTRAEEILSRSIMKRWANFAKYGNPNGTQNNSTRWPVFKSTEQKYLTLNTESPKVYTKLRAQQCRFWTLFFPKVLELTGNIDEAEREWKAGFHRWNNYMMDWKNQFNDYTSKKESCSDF
For a further assay, the target named is Cannabinoid receptor 1 (Homo sapiens, UniProt P21554). Kind of assay: Displacement of [3H]-CP55940 from human CB1 receptor transfected in HEK-293EBNA cells after 90 mins by luminescence counting analysis. The class given is cell-based. A general note: In a radioligand displacement assay an active substance lowers the binding of a labelled ligand.
Sequence of Cannabinoid receptor 1 (P21554 whole entry): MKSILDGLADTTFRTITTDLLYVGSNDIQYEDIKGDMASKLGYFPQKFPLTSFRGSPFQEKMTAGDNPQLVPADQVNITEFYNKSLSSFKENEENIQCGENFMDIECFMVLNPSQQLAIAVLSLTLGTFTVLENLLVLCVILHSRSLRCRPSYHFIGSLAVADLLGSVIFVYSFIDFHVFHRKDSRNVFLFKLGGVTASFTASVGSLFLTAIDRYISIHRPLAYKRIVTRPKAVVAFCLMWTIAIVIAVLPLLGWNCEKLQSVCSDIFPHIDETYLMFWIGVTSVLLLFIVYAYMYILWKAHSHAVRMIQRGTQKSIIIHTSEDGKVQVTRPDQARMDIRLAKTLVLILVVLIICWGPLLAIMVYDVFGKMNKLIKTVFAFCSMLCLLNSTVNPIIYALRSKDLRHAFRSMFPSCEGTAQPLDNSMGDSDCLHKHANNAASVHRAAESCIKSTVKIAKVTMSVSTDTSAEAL
The next assay concerns the target Cannabinoid receptor 2 (Homo sapiens, UniProt P34972). Briefly: Displacement of [3H]-CP55940 from human CB2 receptor transfected in HEK-293EBNA cells after 90 mins by luminescence counting analysis. The class given is cell-based.
The target in assay [4] is Cannabinoid receptor 1 (Mus musculus) (UniProt P47746). Kind of assay: Agonist activity at CB1 receptor in ICR mouse vas deferens assessed as inhibition of electrically induced contractile response after 10 mins.
Sequence of Cannabinoid receptor 1 (Mus musculus) (P47746 whole entry): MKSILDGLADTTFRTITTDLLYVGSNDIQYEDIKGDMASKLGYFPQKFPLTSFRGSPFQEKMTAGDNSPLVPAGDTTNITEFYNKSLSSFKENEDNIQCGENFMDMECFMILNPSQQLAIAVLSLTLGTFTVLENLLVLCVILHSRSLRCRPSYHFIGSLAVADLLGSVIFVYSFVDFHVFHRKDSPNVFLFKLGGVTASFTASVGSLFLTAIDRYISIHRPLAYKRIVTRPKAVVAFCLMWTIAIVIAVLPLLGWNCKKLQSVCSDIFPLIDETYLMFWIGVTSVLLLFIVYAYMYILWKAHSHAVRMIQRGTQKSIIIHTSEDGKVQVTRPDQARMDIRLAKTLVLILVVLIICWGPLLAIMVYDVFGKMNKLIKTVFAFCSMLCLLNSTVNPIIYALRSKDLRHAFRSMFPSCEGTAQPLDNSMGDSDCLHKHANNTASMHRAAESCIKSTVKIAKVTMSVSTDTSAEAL
The target of assay [5] is T3, Cannabinoid receptor (Mus musculus) (UniProt P47746+P47936). Briefly: Agonist activity at CB1/CB2 receptor in ICR mouse vas deferens assessed as inhibition of electrically induced contractile response at 2.7 X 10^-6 M after 10 mins in presence of AM251 and AM630. The class given is […].
T3 sequence (P47746 whole entry, looked up): as the sequence (P47746 whole entry) above
T3 sequence (P47936 whole entry, looked up): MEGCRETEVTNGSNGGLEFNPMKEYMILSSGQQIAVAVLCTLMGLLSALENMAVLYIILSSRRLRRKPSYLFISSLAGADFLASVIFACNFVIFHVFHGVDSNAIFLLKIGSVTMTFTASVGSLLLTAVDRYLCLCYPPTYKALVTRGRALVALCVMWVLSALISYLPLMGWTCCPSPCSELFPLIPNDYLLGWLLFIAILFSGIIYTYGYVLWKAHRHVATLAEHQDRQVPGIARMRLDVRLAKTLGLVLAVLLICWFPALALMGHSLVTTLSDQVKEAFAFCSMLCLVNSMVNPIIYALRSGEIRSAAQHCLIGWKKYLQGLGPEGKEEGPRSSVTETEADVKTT
Assay [6] deals with Cannabinoid receptor 1 (Mus musculus) (UniProt P47746). Briefly: Agonist activity at CB1 receptor in ICR mouse vas deferens assessed as inhibition of electrically induced contractile response at 10^-7 to 2 X 10^-5 M after 10 mins.
Assay [7] addresses T2, Cholinesterase. Kind of assay: Mixed-type inhibition of BuChE (unknown origin) using butyrylthiocholine as substrate by Lineweaver-Burk double reciprocal plot analysis.
A short description of assay [8]: Antioxidant activity in phosphate buffer after 15 mins by ORAC-FL method relative to trolox. The assay is classed as functional.
The target in assay [9] is T3, Cannabinoid receptor (Mus musculus). Kind of assay: Agonist activity at CB1/CB2 receptor in ICR mouse vas deferens assessed as inhibition of electrically induced contractile response at 2.7 X 10^-6 M after 10 mins in presence of AM251. The assay is classed as […].
The target in assay [10] is T2, Cholinesterase. Kind of assay: Competitive inhibition of BuChE (unknown origin) using butyrylthiocholine as substrate by Lineweaver-Burk double reciprocal plot analysis.
Assay [11] concerns the target T1, Acetylcholinesterase. Kind of assay: Competitive inhibition of AChE (unknown origin) by Lineweaver-Burk double reciprocal plot analysis.
Assay [12] concerns the target T2, Cholinesterase. Kind of assay: Noncompetitive inhibition of BuChE (unknown origin) using butyrylthiocholine as substrate by Lineweaver-Burk double reciprocal plot analysis.

Sequence of Cannabinoid receptor 2 (P34972 whole entry): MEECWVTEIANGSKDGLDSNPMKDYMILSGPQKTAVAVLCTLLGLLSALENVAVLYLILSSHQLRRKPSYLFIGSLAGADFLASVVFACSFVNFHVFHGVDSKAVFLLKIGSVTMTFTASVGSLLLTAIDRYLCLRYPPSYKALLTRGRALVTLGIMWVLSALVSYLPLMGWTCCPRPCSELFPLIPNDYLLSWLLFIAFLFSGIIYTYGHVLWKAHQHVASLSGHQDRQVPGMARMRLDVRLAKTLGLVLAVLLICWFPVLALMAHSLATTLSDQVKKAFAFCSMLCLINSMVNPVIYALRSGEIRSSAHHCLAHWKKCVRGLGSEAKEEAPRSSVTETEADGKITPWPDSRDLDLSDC

Regarding `O=[N+]([O-])c1ccc2c(c1)c(OCc1ccc3ccccc3c1)nn2Cc1ccc2ccccc2c1`, the IC50 against Acetylcholinesterase [1], at Cholinesterase [2] and at Cholinesterase [3] was over 10 µM throughout. Also, the Ki at Cannabinoid receptor 1 and at Cannabinoid receptor 2 was over 10 µM each time.

As for `Nc1ccc2c(c1)c(OCc1ccc3ccccc3c1)nn2CCN1CCCCC1`, the inhibition entry in [4] is “Dose-dependent effect”. Also, the inhibition entry in assay [5] and in assay [9] was “inactive” throughout. Also, the values for the IC50 at Acetylcholinesterase [1] and at Cholinesterase [3] were over 10 µM and 1.5 µM, respectively. In addition, in assay [6], the inhibition entry was “Active”. The Ki is 0.38 µM at Cholinesterase [7], over 40 µM at Cannabinoid receptor 1 and 2 µM on Cannabinoid receptor 2. Further, the Ratio in assay [8] came to 0.8.

`O=[N+]([O-])c1ccc2c(c1)c(OCC1CCCCC1)nn2Cc1ccccc1`: the IC50 against Acetylcholinesterase [1], against Cholinesterase [2] and against Cholinesterase [3] was over 10 µM throughout. The values for the Ki at Cannabinoid receptor 1 and on Cannabinoid receptor 2 were over 40 µM and 0.09 µM, respectively. Also, the inhibition at Cannabinoid receptor 1 is 39%.

Regarding `c1ccc2c(COc3nn(Cc4cccc5ccccc45)c4ccccc34)cccc2c1`, the IC50 against Acetylcholinesterase [1] and on Cholinesterase [2] was over 10 µM throughout. For the same compound, the Ki at Cannabinoid receptor 1 and on Cannabinoid receptor 2 was over 10 µM in each case.

As to `O=[N+]([O-])c1ccc2c(c1)c(OCc1ccc3ccccc3c1)nn2CCN1CCOCC1`, the IC50 against Acetylcholinesterase [1], on Cholinesterase [2] and at Cholinesterase [3] was over 10 µM each time. Further, the values for the Ki at Cannabinoid receptor 1 and on Cannabinoid receptor 2 were 1.38 µM and 0.5 µM, respectively.

Take `O=[N+]([O-])c1ccc2c(c1)c(OCc1cccc3ccccc13)nn2CCN1CCCC1`: the inhibition entry in assay [4] was “Dose-dependent effect”. For the same compound, the IC50 is over 25 µM at Acetylcholinesterase [1] and 4.5 µM against Cholinesterase [2]. Also, the Ki on Cholinesterase [10] stood at 2.1 µM; at Cannabinoid receptor 1 it was 0.6 µM; on Cannabinoid receptor 2, 0.13 µM.

Consider `CCCCCn1nc(OCc2ccc(OC)cc2)c2cc([N+](=O)[O-])ccc21`, for which the IC50 on Acetylcholinesterase [1] was 9.7 µM; against Cholinesterase [2], over 10 µM; against Cholinesterase [3], over 10 µM. Moreover, the figures for the Ki on Cannabinoid receptor 1 and on Cannabinoid receptor 2 were 0.8 µM and 0.49 µM, respectively.

As for `Brc1ccc2c(c1)c(OCc1ccc3ccccc3c1)nn2CCN1CCCCC1`, the IC50 against Acetylcholinesterase [1] was over 10 µM; at Cholinesterase [2] it was 0.19 µM. In addition, the Ki worked out at 0.079 µM on Cholinesterase [10], 1.7 µM on Cannabinoid receptor 1 and 1.8 µM at Cannabinoid receptor 2.

Consider `O=[N+]([O-])c1ccc2c(c1)c(OCc1cccc3ccccc13)nn2Cc1cccc2ccccc12`, for which the figures for the IC50 against Acetylcholinesterase [1] and on Cholinesterase [2] were 6.7 µM and over 10 µM, respectively. Further, the Ki on Cannabinoid receptor 1 was found to be 3.8 µM; on Cannabinoid receptor 2, 0.24 µM.

`c1ccc2c(c1)c(OCC1CCCCC1)nn2CC1CCCCC1`: the figures for the half-inhibitory concentration (IC50) against Acetylcholinesterase [1], against Cholinesterase [2] and against Cholinesterase [3] were 7.1 µM, over 10 µM and over 10 µM, respectively. For the same compound, the Ki at Cannabinoid receptor 1 was 0.2 µM; on Cannabinoid receptor 2, 1.3 µM.

Take `Cc1c(C(=O)c2cccc3ccccc23)c2cccc3c2n1[C@H](CN1CCOCC1)CO3`: the inhibition result in [6] is “Active”.

For the compound `CC(C)N(CCn1nc(OCc2cccc3ccccc23)c2ccccc21)C(C)C`, the IC50 was over 10 µM on Acetylcholinesterase [1] and 0.1 µM against Cholinesterase [2]. The Ki was 0.028 µM at Cholinesterase [10], over 40 µM on Cannabinoid receptor 1 and 5.4 µM on Cannabinoid receptor 2. Moreover, the inhibition result on Acetylcholinesterase [11] was “Active”.

With `CCCCCOc1nn(CCCCC)c2ccc([N+](=O)[O-])cc12`, the IC50 is 4.2 µM at Acetylcholinesterase [1], over 10 µM at Cholinesterase [2] and over 10 µM on Cholinesterase [3]. Further, the Ki on Cannabinoid receptor 1 came to 1.3 µM; at Cannabinoid receptor 2, 0.68 µM.

Take `Nc1ccc2c(c1)c(OCc1ccccc1)nn2Cc1ccccc1`: the half-maximal inhibitory concentration (IC50) against Cholinesterase [2] and against Cholinesterase [3] was over 10 µM in each case. In addition, the Ki on Cannabinoid receptor 1 worked out at 4 µM; on Cannabinoid receptor 2, 1.6 µM.

Take `COc1ccc(COc2nn(Cc3ccc(OC)cc3)c3ccccc23)cc1`: the IC50 on Acetylcholinesterase [1], at Cholinesterase [2] and against Cholinesterase [3] was over 10 µM in each case. For the same compound, the Ki at Cannabinoid receptor 1 is 2.4 µM; on Cannabinoid receptor 2 it was 0.9 µM.

As to `COc1ccc(COc2nn(CCN(C(C)C)C(C)C)c3ccccc23)cc1`, in [4], the inhibition result was “Dose-dependent effect”. Besides, the inhibition entry in assay [5] and in assay [9] was “inactive” throughout. In addition, the Ki at Cholinesterase [12] was 2.6 µM; at Cannabinoid receptor 1, over 40 µM; at Cannabinoid receptor 2 it was 7.7 µM. Also, the IC50 is over 10 µM against Acetylcholinesterase [1], 4.8 µM against Cholinesterase [2] and 2.28 µM against Cholinesterase [3]. Besides, the Ratio in [8] was determined as 1.

`COc1ccc(COc2nn(CCN(C(C)C)C(C)C)c3ccc([N+](=O)[O-])cc23)cc1`: the IC50 at Acetylcholinesterase [1] is 91 µM; on Cholinesterase [2], over 100 µM. In addition, the Ki on Cannabinoid receptor 1 was over 40 µM; at Cannabinoid receptor 2, 9 µM.

Take `O=[N+]([O-])c1ccc2c(c1)c(OCc1ccc3ccccc3c1)nn2Cc1ccccc1`: the figures for the IC50 at Acetylcholinesterase [1], against Cholinesterase [2] and against Cholinesterase [3] were 6.3 µM, over 10 µM and over 10 µM, respectively. Moreover, the Ki was over 10 µM at Cannabinoid receptor 1 and 0.4 µM on Cannabinoid receptor 2.

Consider `O=[N+]([O-])c1ccc2c(c1)c(OCc1ccc3ccccc3c1)nn2CCN1CCCCC1`, for which the IC50 against Acetylcholinesterase [1] is over 10 µM; on Cholinesterase [2], 3.6 µM; on Cholinesterase [3], 2.07 µM. In addition, the Ki turned out to be 2.9 µM on Cholinesterase [7], 1.3 µM at Cannabinoid receptor 1 and 0.5 µM at Cannabinoid receptor 2.

Take `c1ccc2c(COc3nn(CCN4CCCC4)c4ccccc34)cccc2c1`: in assay [4], the inhibition entry was “Dose-dependent effect”. Further, the inhibition result in assay [5], in [6] and in [9] was “Active” throughout. Moreover, the IC50 against Acetylcholinesterase [1] is over 10 µM; at Cholinesterase [2], 2.83 µM; against Cholinesterase [3], 6.7 µM. Also, the Ratio in assay [8] worked out at 0.7. Also, the Ki on Cholinesterase [10] worked out at 1.2 µM; on Cannabinoid receptor 1, 0.56 µM; at Cannabinoid receptor 2 it was 0.4 µM.

With `c1ccc2c(COc3nn(CCN4CCCCC4)c4ccccc34)cccc2c1`, the inhibition entry in assay [4] was “Dose-dependent effect”. Besides, the inhibition entry (in assay [5]; in assay [6]; in assay [9]; at Acetylcholinesterase [11]) was “Active” in each case. Besides, the results for the IC50 against Acetylcholinesterase [1], against Cholinesterase [2] and against Cholinesterase [3] were over 10 µM, 0.81 µM and 0.91 µM, respectively. The Ratio in assay [8] stood at 0.5. Also, the Ki is 0.22 µM on Cholinesterase [10], 3 µM at Cannabinoid receptor 1 and 0.24 µM on Cannabinoid receptor 2.

On to `c1ccc2cc(COc3nn(CCN4CCCCC4)c4ccccc34)ccc2c1`, for which the inhibition result in assay [4] is “Dose-dependent effect”. Besides, the inhibition result in [5] and in assay [9] was “inactive” throughout. The Ki at Cholinesterase [12] was found to be 1.19 µM; on Cannabinoid receptor 1 it was 1.4 µM; on Cannabinoid receptor 2, 2 µM. The results for the IC50 on Acetylcholinesterase [1], against Cholinesterase [2] and on Cholinesterase [3] were over 10 µM, 0.97 µM and 1.4 µM, respectively. In [6], the inhibition entry was “Active”. In addition, the Ratio in [8] worked out at 0.5.

Turning to `O=[N+]([O-])c1ccc2c(c1)c(OCc1ccccc1)nn2Cc1ccccc1`, the IC50 was 7.3 µM against Acetylcholinesterase [1], over 10 µM on Cholinesterase [2] and over 10 µM at Cholinesterase [3]. Also, the results for the Ki on Cannabinoid receptor 1 and on Cannabinoid receptor 2 were 1.2 µM and 0.4 µM, respectively.

In the case of `c1ccc(COc2nn(Cc3ccccc3)c3ccccc23)cc1`, the IC50 against Acetylcholinesterase [1] was 2.9 µM; on Cholinesterase [2], over 25 µM. For the same compound, the Ki on Cannabinoid receptor 1 worked out at 2.6 µM; on Cannabinoid receptor 2, 3.51 µM.

Regarding `Nc1ccc2c(c1)c(OCc1cccc3ccccc13)nn2CCN1CCCC1`, the inhibition entry in assay [4] was “Dose-dependent effect”. For the same compound, the inhibition entry in assay [5], in [6] and in assay [9] was “Active” in each case. Besides, the IC50 was over 25 µM against Acetylcholinesterase [1] and 3 µM against Cholinesterase [2]. The Ratio in assay [8] was found to be 1.3. The Ki is 1 µM on Cholinesterase [10], 11 µM at Cannabinoid receptor 1 and 5 µM on Cannabinoid receptor 2.

As to `CCCCCn1nc(OCc2ccc3ccccc3c2)c2cc([N+](=O)[O-])ccc21`, the IC50 is 8.2 µM against Acetylcholinesterase [1], over 10 µM against Cholinesterase [2] and over 10 µM on Cholinesterase [3]. The results for the Ki at Cannabinoid receptor 1 and on Cannabinoid receptor 2 were 1.6 µM and 1.37 µM, respectively.

The values are drawn from ChEMBL document CHEMBL3112400, “Cannabinoid agonists showing BuChE inhibition as potential therapeutic agents for Alzheimer's disease” (Eur J Med Chem, 2014).
